From US20100286093A1, “ANTI-INFLAMMATORY COMPOSITION CONTAINING DOCOSAHEXAENOYL LYSOPHOSPHATIDYLAMINE AS AN ACTIVE INGREDIENT” (The Industry & Academic Cooperation in Chungnam National …, priority 2009, published 2010)

Columns and labels:
[1] = test system: zymosan A induced plasma leakage; assay: Zymosan A induced plasma leakage in peritoneal fluid (Evans blue), intravenous injection; type: in vivo, mice
Procedure: To investigate inhibitory effect of docosahexaenoyl lysophosphatidylcholine on peritonitis induced by zymosan, the present inventors induced inflammation in abdominal cavity by injecting zymosan A (saccharomyces cerevisiae) (Sigma-Aldrich Corp, St. Louis, Mo., USA), and then administered lysophosphatidylcholine, followed by evaluation of anti-inflammatory effect. Particularly, SPF mice (6 weeks, male) were adapted for 12 hours and then raised in an animal laboratory at College of Pharmacy under 12/12 hour dark/light cycle. Then, the mice were used for intra-abdominal inflammatory response experiment. First, each experimental group was composed of 5˜10 mice, to which 10˜500 μg/kg of each lysophosphatidylcholine was injected through tail vein. The control group was injected with 50˜100 ul of saline. 30 minutes later, 0.5% Evans blue dye solution (0.2 ml) was injected through tail vein and then 100 ul of zymosan A (1 mg/ml) dissolved in saline was injected into abdominal cavity. 30 minutes after the administration, the mice were anesthetized lightly with ether or fluorine, followed by neck dissection. 4 ml of ice-cold PBS was injected into abdominal cavity and peritoneal fluid was recovered by using a plastic syringe, followed by centrifugation (3,000 rpm, 10 minutes). Supernatant was obtained from the centrifugation, with which exudation of Evans blue was measured by spectrophotometer at 620 nm to evaluate anti-inflammatory effect (Arita M, et al., Proc Natl Acad Sci USA. 2005 May 24; 102(21):7671-6; Takenaka M, et al., Biol Pharm Bull. 2005 July; 28(7):1291-3).
The present inventors measured time-dependent anti-inflammatory effect (inhibitory effect on zymosan A induced plasma leakage) of each lysophosphatidylcholine. Particularly, docosahexaenoyl lysophosphatidylcholine (50 μg/kg) was injected to mice through tail vein at different time intervals (15 minutes—120 minutes; […], 30 minutes, 60 minutes and 120 minutes before zymosan A administration). After administrating zymosan A ([…]) via intraperitoneal injection, Evans blue was treated, followed by measuring plasma leakage in peritoneal fluid.
Particularly, docosahexaenoyl lysophosphatidylcholine (50 μg/kg), docosahexaenoic acid (50 μg/kg) or 17-HPDHA lysophosphatidylcholine (17(S)-hydroperoxy-4,7,10,13,15,19-docosahexaenoyl lysophosphatidylcholine) were compared. Soybean LOX-1 (200 units/ml) was added in borax buffer (50 mM, pH 9.0) containing docosahexaenoyl lysophosphatidylcholine (20 uM), followed by reaction at 25° C. for 30 minutes, which was passed through C18 column (2×1 cm) and eluted with methanol (Huang L S, et al., J Agric Food Chem. 2008 Sep. 10; 56(17):7808-14)] (50 μg/kg) was treated to mice 30 minutes before zymosan A injection. 30 minutes later, plasma leakage in peritoneal fluid was measured.
The present inventors intravenously injected docosahexaenoyl lysophosphatidylethanolamine into mice at the concentration of 15˜150 μg/kg. 30 Min later, 100 ul of zymosan A(1 mg/ml) was treated thereto to induce inflammation in abdominal cavity. After administering 0.5% Evans blue, plasma leakage in peritoneal fluid was measured.

[2] = test system: RAW 264.7 cells; assay: LPS induced NO generation in RAW 264.7 cells (Griess reagent); type: cell-based
Text: Macrophages are known to play an important role in inflammatory response and host defense. When macrophages are activated by lipopolysaccharide (LPS), a huge amount of NO (nitric oxide) is generated, which is mediated by inducible nitric oxide synthase (iNOS).
Based on that, the present inventors observed how unsaturated fatty acid containing lysophosphatidylcholine (lysoPC) affected the generation of NO, the inflammation mediator, induced by LPS in RAW 264.7 cells. Particularly, RAW 264.7 cells (5×10^4/well) were pre-cultured with each polyunsaturated lysophosphatidylcholine; linoleoyl lysophosphatidylcholine, arachidonoyl lysophosphatidylcholine and docosahexaenoyl lysophosphatidylcholine [prepared by the co-treatment with diacyl phosphatidylcholine (Avanti Polar Lipids, Alabaster, Ala., USA) and phospholipase A2 (PLA2, Sigma-Aldrich Corp, St. Louis, Mo., USA) (Croset, M. et al., Biochem. J. 2000, 345, 61-67; Adachi, J. et al., Kobe. J. Med. Sci. 2006, 52, 127-140)] (0˜60 uM) at 37° C. for 2 hours. Then, LPS (1 μg/ml) was added thereto, followed by culture for 20 hours under the same conditions as the above. […] Then, OD540 was measured to measure NO generation (Green L C, et al., Anal Biochem. 1982 October; 126(1):131-8).

[3] = test system: zymosan A induced plasma leakage; assay: Zymosan A induced plasma leakage in peritoneal fluid (Evans blue), intraperitoneal injection; type: in vivo, mice; details: i.p.
Procedure: The present inventors intraperitoneally injected docosahexaenoyl lysophosphatidylcholine or 17-HPDHA lysophosphatidylcholine (docosahexaenoyl lysophosphatidylcholine oxide) into mice at the concentration of 15˜150 μg/kg. The control group was injected with 50˜100 ul of saline. 2 Hours later, 0.5% Evans Blue dye solution (0.2 ml) was injected through tail vein, followed by intraperitoneal injection of 100 ul of zymosan A (1 mg/ml) dissolved in saline. 30 minutes later, the mice were slightly anesthetized with ether or fluorine, followed by neck dissection. 4 ml of ice-cold PBS was injected into abdominal cavity and peritoneal fluid was recovered by using a plastic syringe, followed by centrifugation (3,000 rpm, 10 minutes). Exudation of Evans blue was measured to evaluate anti-inflammatory effect.

**Q.** “arachidonoyl lysophosphatidylcholine [reference compound]” was tested. Which “reduction of zymosan induced plasma leakage” value (shortened to “reduction”) ([1]; 50 μg/kg i.v.) did it give?
**A.** reduced plasma leakage significantly

**Q.** And the “reduction” value ([1]; 150 μg/kg i.v.)?
**A.** more peculiar

**Q.** And the “reduction” value ([1]; 500 μg/kg i.v., versus 150 μg/kg)?
**A.** this effect was not increased any more

**Q.** What about the “inhibition of NO generation induced by LPS” value ([2]; 60 uM) of the same compound?
**A.** ≤ 20%

**Q.** Which “inhibition of zymosan induced plasma leakage, dose dependence” value ([1]; i.v., up to 500 μg/kg) does the source give for CCCCC/C=C\C/C=C\CCCCCCCC(=O)OC[C@@H](O)COP(=O)([O-])OCC[N+](C)(C)C [linoleoyl lysophosphatidylcholine, reference compound] here?
**A.** did not show inhibitory effect

**Q.** And the “inhibitory effect on NO generation induced by LPS” value ([2]; up to 60 uM)?
**A.** did not show any significant inhibitory effect

**Q.** Which results are given for “17(S)-hydroperoxy-4,7,10,13,15,19-docosahexaenoyl lysophosphatidylcholine [17-HPDHA lysophosphatidylcholine]”?
**A.** inhibitory effect on plasma leakage (metabolite comparison) ([1]; 50 μg/kg, 30 minutes before zymosan A injection, compared to docosahexaenoyl lysophosphatidylcholine): a greater inhibitory effect; inhibitory effect on zymosan induced plasma leakage ([3]; 15 μg/kg or higher, 2 hours before zymosan A): significant; effectiveness in comparison with docosahexaenoyl lysophosphatidylcholine ([3]; 15~150 μg/kg): somewhat more effective than docosahexaenoyl lysophosphatidylcholine; inhibition of zymosan induced plasma leakage, dose dependence ([3]; up to 150 μg/kg): dose-dependent

**Q.** Which “inhibitory effect on zymosan A induced plasma leakage” value ([1]; i.v., 50 μg/kg or higher, 30 min before zymosan A) does the source give for “docosahexaenoyl lysophosphatidylethanolamine” here?
**A.** significant inhibitory effect

**Q.** And the “inhibition of zymosan A induced plasma leakage, dose dependence” value ([1]; i.v., up to 150 μg/kg)?
**A.** inhibited zymosan A induced plasma leakage dose-dependently
